According to ChEMBL document CHEMBL3763153, “Recent Update on Human Lactate Dehydrogenase Enzyme 5 (hLDH5) Inhibitors: A Promising Approach for Cancer Chemotherapy” (J Med Chem, 2016):

What was measured:
[1] = molecular target: T1, L-lactate dehydrogenase A chain (Homo sapiens, UniProt P00338)
Description: Competitive inhibition of human LDH5 in presence of NADH

[2] = molecular target: L-lactate dehydrogenase B chain (Homo sapiens, UniProt P07195)
Description: Competitive inhibition of human LDH1 in presence of NADH

[3] = molecular target: T1, L-lactate dehydrogenase A chain; assay: Competitive inhibition of human LDH5 incubated for 15 mins in presence of NADH by fluorescence analysis

L-lactate dehydrogenase B chain, sequence (P07195 whole entry): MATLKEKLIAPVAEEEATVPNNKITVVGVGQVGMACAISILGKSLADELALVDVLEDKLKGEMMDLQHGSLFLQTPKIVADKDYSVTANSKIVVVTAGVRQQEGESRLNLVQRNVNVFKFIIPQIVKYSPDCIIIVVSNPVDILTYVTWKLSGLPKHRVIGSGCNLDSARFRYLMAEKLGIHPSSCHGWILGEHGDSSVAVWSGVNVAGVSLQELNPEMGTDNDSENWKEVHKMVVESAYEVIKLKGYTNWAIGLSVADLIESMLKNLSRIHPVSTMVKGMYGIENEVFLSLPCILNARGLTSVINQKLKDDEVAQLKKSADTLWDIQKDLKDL

SMILES	Ki [1]	Ki [2]	further results
CCCc1c(O)c(O)c(C(=O)O)c2ccc(C)cc12	1000 nM	–	–
O=C(O)CCCc1ccc(-n2cc(CCCn3cc(C4=C(c5c[nH]c6ccccc56)C(=O)NC4=O)c4ccccc43)nn2)cc1	–	–	IC50 [1]: 14800 nM
Cc1cc2c(C(C)C)c(O)c(O)c(C(=O)O)c2cc1Cc1ccccc1	200 nM	–	–
O=C(O)CCCCn1cc(CCCCn2cc(C3=C(c4c[nH]c5ccccc45)C(=O)NC3=O)c3ccccc32)nn1	–	–	IC50 [1]: 35900 nM
O=C(O)c1cc2c(C(F)(F)F)cc(-c3ccccc3)cc2n1O[C@@H]1O[C@H](CO)[C@@H](O)[C@H](O)[C@H]1O	–	–	Ki [3]: 19500 nM
Cc1cc2c(C(C)C)c(O)c(O)c(C(=O)O)c2cc1Cc1ccc(Cl)cc1	1000 nM	8000 nM	–
Cc1cc2c(C(C)C)c(O)c(O)c(C=O)c2c(O)c1-c1c(C)cc2c(C(C)C)c(O)c(O)c(C=O)c2c1O [GOSSYPOL]	1900 nM	–	–
NC(=O)C(=O)O [OXAMATE]	–	94400 nM	–

Continued, in another order:

Ki [1]	Ki [2]	SMILES	further results
600 nM	400 nM	Cc1cc2c(C(C)C)c(O)c(O)c3c2c(c1-c1c(C)cc2c(C(C)C)c(O)c(O)c4c2c1OC4=O)OC3=O	–
30 nM	8000 nM	Cc1ccc(-c2cc3c(C(=O)O)c(O)c(O)c(C(C)C)c3cc2C)cc1	–
3000 nM	> 125000 nM	Cc1ccccc1-c1cc2c(C(=O)O)c(O)c(O)c(C(C)C)c2cc1C	–
1300 nM	700 nM	Cc1cc2c(C(C)C)c(O)c(O)c(C(=O)O)c2cc1-c1ccc2c(C(C)C)c(O)c(O)c(C(=O)O)c2c1	–
200 nM	–	Cc1cccc(-c2cc3c(C(=O)O)c(O)c(O)c(C(C)C)c3cc2C)c1	–
2500 nM	92000 nM	Cc1cc2c(C(C)C)c(O)c(O)c3c2c(c1-c1c(C)cc2c(C(C)C)c(O)c(O)c4c2c1OC4=N)OC3=N	–
2000 nM	–	CC(=O)Oc1c(-c2c(C)cc3c(C(C)C)c(O)c(O)c(C#N)c3c2OC(C)=O)c(C)cc2c(C(C)C)c(O)c(O)c(C#N)c12	–
9100 nM	–	CCCCC(=O)Oc1c(-c2c(C)cc3c(C(C)C)c(O)c(O)c(C#N)c3c2OC(=O)CCCC)c(C)cc2c(C(C)C)c(O)c(O)c(C#N)c12	–
